Entries after “also recorded” stand apart in the source; their conditions may differ.
Key:
FAAH−/− and FAAH+/+ mice [1] = assay: Locomotor activity (hypomotility), grid crossings 15 to 20 min post-injection; format: in vivo, mouse
Experimental: (§1) All drugs were administered intraperitoneal (ip) in a mixture of 1 part ethanol: 1 part EMULPHOR alcohol (GAF Corp.; New York N.Y.): 18 parts saline (10 μl/g body weight), except naloxone was administered ip in saline.
(§2) Locomotor activity was assessed by placing each mouse in a clear plexiglass cage (18×10×8.5 inches; l.w.h) that was marked in 7 cm square grids on the floor of the cage. The number of grids that were traversed by the hind paws was counted from 15 to 20 min post-injection. Nociception was assessed using the tail immersion assay, wherein each mouse was hand-held with approximately 1 cm of the tip of the tail immersed into a water bath maintained at 56.0° C. and the latency for the animal to withdraw its tail was scored. The cutoff was 15 sec, and the data were expressed as the percent maximum possible effect (% MPE), where % MPE=100×{(post-injection latency−pre-injection latency)/(15−pre-injection latency)}. Baseline thermal nociception was also analyzed using the hot plate test, wherein the latency to jump or lick/shake a hind paw was scored.

FAAH−/− and FAAH+/+ mice [2] = assay: Tail immersion assay (antinociception); format: in vivo, mouse
Experimental: as §1, §2

FAAH−/− and FAAH+/+ mice [3] = assay: Catalepsy bar test; format: in vivo, mouse
Experimental: as §1
(§3) Catalepsy was evaluated using the bar test, in which the front paws of each subject were placed on a rod (0.75 cm diameter) that was elevated 4.5 cm above the surface. Mice that remained motionless with their paws on the bar for 10 sec (with the exception of respiratory movements) were scored as cataleptic. Rectal temperature was determined by inserting a thermocouple probe 1.2 cm into the rectum; the temperature was obtained using a telethermometer. The pre-injection rectal temperatures for FAAH^+/+ (35.6±0.2° C., n=28) and FAAH^−/− mice (35.5±0.1° C., n=30) mice were equivalent. Catalepsy and rectal temperature were assessed at 60 min post-injection unless otherwise indicated.

[4] = system: FAAH−/−, FAAH+/− and FAAH+/+ mice; assay: Hot plate test, response latency before and after treatment; format: in vivo, mouse
Experimental: as §2
To test whether enhanced levels of endogenous anandamide were responsible for the analgesia observed in FAAH^−/− mice, the pain responses of these animals and FAAH^+/+ mice were tested prior to and after treatment with vehicle or with SR141716A.

FAAH−/− and FAAH+/+ mice [5] = assay: Neurobehavioral assays taken together (hypomotility, analgesia, catalepsy, hypothermia); format: in vivo, mouse
Experimental: as §1, §2
as §3, with “The pre-injection rectal temperatures for FAAH^+/+ (35.6±0.2° C., n=28) and FAAH^−/− mice (35.5±0.1° C., n=30) mice were equivalent.” left out

FAAH−/− and FAAH+/+ mice [6] = assay: Rectal temperature (hypothermia); format: in vivo, mouse
Experimental: as §1, §3

FAAH−/− mice = assay: Overt cage behavior after anandamide; format: in vivo, mouse
Excerpt: If startled by sound or touch, the knockout mice reacted with brief fits of spastic movement, then quickly reentered a flattened, immobile state. Anandamide-treated FAAH^−/− mice remained immobile for 2 to 4 hr, depending on dose, after which they gradually reinitiated normal cage activities, including movement, rearing, and grooming.

[7] = cited from earlier work
[8] = system: FAAH(−/−), FAAH-TG(+) and FAAH(−/−), FAAH-TG(−) mice; assay: Pharmacological effects of anandamide in mice with FAAH expression restricted to the nervous system; format: in vivo, mouse; conditions: 50 mg/kg i.p.
Experimental: Animals were tested at 20 minutes (A) and 60 minute (B and C) following treatment with anandamide. HT−=FAAH(+/−), FAAH-TG(−); KO+=FAAH(−/−), FAAH-TG(+); KO−=FAAH(−/−), FAAH-TG(−).
Exogenously applied and endogenously produced fatty acid amides induce a variety of behavioral effects in mammals, which may reflect either central or peripheral sites of action. In wild type mammals, FAAH is not only expressed in the central and peripheral nervous system, but also in a variety of non-nervous system peripheral tissues, including liver, kidney, and testis. […] To address this issue, the mouse FAAH cDNA was placed under the control of the neural specific enolase (NSE) promoter (Forss-Petter et al. (1990) Neuron 5, 187-197) and this construct was used to generate transgenic mice (mixed background of C57Bl/6 and Balb/c) by pronuclear injection methods following standard literature procedures (Gordon, J. W. (1993) Methods Enzymol. 225, 747-771). These animals were screened by Southern blotting for genomic incorporation of the FAAH gene and multiple FAAH-positive transgenic [FAAH-TG(+)] lines were identified. One of these FAAH-TG(+) lines was then crossed to mice heterozygotic for FAAH deletion [FAAH(+/−) mice]. To create representative mouse genotypes for biochemical and behavioral analysis, the following breeding pairs were set up: FAAH(+/−),FAAH-TG(+)×FAAH(−/−),FAAH-TG(−). […]

[9] = biological target: T1, fatty acid amide hydrolase (FAAH) (Mus musculus, UniProt O08914); assay: FAAH activity assay, conversion of 14C-labeled substrates by thin layer chromatography; format: biochemical; conditions: pH 7.2
T1 construct: Brain and liver were isolated from homozygous wild type (FAAH^+/+), heterozygous (FAAH^+/−) and homozygous knockout (FAAH^−/−) mice; from tissue; host or cells: mouse brain and liver extracts (129SvJ-C57BL/6 intercross offspring)
T1 sequence (O08914 1-579): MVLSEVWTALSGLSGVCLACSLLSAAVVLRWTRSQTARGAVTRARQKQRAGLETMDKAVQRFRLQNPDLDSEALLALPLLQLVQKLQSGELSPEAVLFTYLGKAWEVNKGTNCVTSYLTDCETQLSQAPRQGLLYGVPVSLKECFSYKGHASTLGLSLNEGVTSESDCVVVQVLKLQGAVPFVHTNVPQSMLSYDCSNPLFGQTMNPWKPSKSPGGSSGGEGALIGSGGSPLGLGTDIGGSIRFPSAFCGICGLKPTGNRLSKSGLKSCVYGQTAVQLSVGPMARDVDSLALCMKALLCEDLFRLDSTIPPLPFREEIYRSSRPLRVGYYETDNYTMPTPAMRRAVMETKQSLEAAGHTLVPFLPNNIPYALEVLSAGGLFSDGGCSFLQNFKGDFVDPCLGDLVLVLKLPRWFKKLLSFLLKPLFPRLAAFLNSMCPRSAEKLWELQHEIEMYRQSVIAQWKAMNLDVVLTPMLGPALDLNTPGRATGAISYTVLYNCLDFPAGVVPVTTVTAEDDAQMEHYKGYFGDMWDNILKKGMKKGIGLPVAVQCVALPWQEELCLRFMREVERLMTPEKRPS
Experimental: The mice also were examined for FAAH enzymatic activity. FAAH activity assays for oleamide and anandamide were measured by following the conversion of ^14C-labeled substrates using a thin layer chromatography assay essentially as described by Patricelli et al. (Biochemistry 38:9804-9812, 1999), except that enzyme assays were conducted at pH 7.2. […] Brain extracts from FAAH^−/− mice hydrolyzed anandamide and oleamide 50 to 100 times more slowly than brain extracts from the homozygous wild type mice.

[10] = FAAH−/− mice, 10 mg/kg, 10 min prior to anandamide 50 mg/kg
[11] = FAAH−/− mice, 50 mg/kg ip, 60 min post-injection

With `Cc1c(C(=O)NN2CCCCC2)nn(-c2ccc(Cl)cc2Cl)c1-c1ccc(Cl)cc1` [SR141716A] the “effect of pretreatment on anandamide-induced hypomotility” value (FAAH−/− and FAAH+/+ mice [1]; [10]) was “completely blocked”, the “effect of pretreatment on anandamide-induced antinociception” value (FAAH−/− and FAAH+/+ mice [2]; [10]) was “completely blocked” and the “effect of pretreatment on anandamide-induced catalepsy” value (FAAH−/− and FAAH+/+ mice [3]; [10]) was “completely blocked”. The “change of hot plate response latency after treatment” value ([4]; FAAH+/+ (b22 also FAAH+/−) mice, listed as SR141617A) was “No significant change from baseline; also recorded: modest increases in their hot plate response latencies that failed to reach significance”, the “change of hot plate pain response latency after treatment” value ([4]; FAAH−/− mice) was “dramatic reduction” and the “effect of pretreatment on all behavioral effects of anandamide” value (FAAH−/− and FAAH+/+ mice [5]; FAAH−/− mice, 10 mg/kg ip, 10 min prior to anandamide 50 mg/kg) was “completely blocked”. The “effect of pretreatment on anandamide-induced hypothermia” value (FAAH−/− and FAAH+/+ mice [6]; [10]) was “completely blocked”.

For `CCCCCc1cc(O)c2c(c1)OC(C)(C)[C@@H]1CCC(C)=C[C@@H]21` [THC, (−)-Δ^9-tetrahydrocannabinol], the “dose response profiles in FAAH−/− versus FAAH+/+ mice, all behavioral assays tested” value (FAAH−/− and FAAH+/+ mice [5]; FAAH−/− and FAAH+/+ mice (Table 2, not given)) was “nearly identical”.

With `CCCCC/C=C\C/C=C\C/C=C\C/C=C\CCCC(=O)NCCO` [anandamide, N-arachidonoyl-ethanolamine] the “time at which the behavioral impact was readily detected” value (FAAH−/− mice) was “within five min of treatment”, the “time the mice remained immobile” value (FAAH−/− mice; depending on dose) was 2 to 4 h and the “reduction in spontaneous activity” value (FAAH−/− and FAAH+/+ mice [1]; FAAH−/− mice, 50 mg/kg ip) was 84±8%. For the same molecule, the ED50 (FAAH−/− and FAAH+/+ mice [1]; Mus musculus, ip, read-out: ED50, hypomotility (locomotor activity)) was < 6.25 mg/kg, the “analgesia in the tail immersion test, maximum possible effect (MPE)” value (FAAH−/− and FAAH+/+ mice [2]; FAAH−/− mice, 50 mg/kg ip) was 89±11% and the ED50 (FAAH−/− and FAAH+/+ mice [2]; Mus musculus, ip, read-out: ED50, antinociception (tail-immersion)) was 13 mg/kg. For the same molecule, the half-life in vivo [7] was “on the order of minutes”, the “time by which catalepsy gradually dissipated” value (FAAH−/− and FAAH+/+ mice [3]; FAAH−/− mice, 50 mg/kg) was ≤ 4 h and the “time post-treatment of most extreme catalepsy” value (FAAH−/− and FAAH+/+ mice [3]; FAAH−/− mice, 50 mg/kg) was 1 h. The “cataleptic behavior in the bar test, share of the test group” value (FAAH−/− and FAAH+/+ mice [3]; [11]) was 88%, the ED50 (FAAH−/− and FAAH+/+ mice [3]; Mus musculus, CL-11, ip, read-out: ED50, catalepsy) was 20 mg/kg and the “behavioral effects in FAAH+/+ mice” value (FAAH−/− and FAAH+/+ mice [5]; FAAH+/+ mice, 6.25 to 50 mg/kg ip) was “failed to produce any significant effects”. The “state of treated FAAH−/− mice 24 hr after treatment” value (FAAH−/− and FAAH+/+ mice [5]; FAAH−/− mice, 24 hr after treatment) was “indistinguishable from FAAH^+/+ mice”, the “time at which rectal temperature began to return to wild type values” (FAAH−/− and FAAH+/+ mice [6]; FAAH−/− mice, 50 mg/kg) was ≤ 4 h and the “reduction in rectal temperature” value (FAAH−/− and FAAH+/+ mice [6]; [11]) was 7.9±0.3 °C. The ED50 (FAAH−/− and FAAH+/+ mice [6]; Mus musculus, ip, read-out: ED50, hypothermia (rectal temperature)) was 11 mg/kg, the “behavioral effects in mice expressing FAAH only in the nervous system” value ([8]; FAAH-TG(+) (KO+) mice, 50 mg/kg) was “sufficient to block the pharmacological effects; also recorded: dramatically reduced” and the “behavioral effects in mice lacking FAAH” value ([8]; FAAH-TG(−) (KO−) mice) was “displayed significant behavioral effects”.

With `C=CCN1CC[C@]23c4c5ccc(O)c4O[C@H]2C(=O)CC[C@@]3(O)[C@H]1C5` [naloxone] the “effect of pretreatment on activity due to anandamide” value (FAAH−/− and FAAH+/+ mice [5]; FAAH−/− mice, 2 mg/kg ip in saline) was “failed to reduce any activity”.

In the case of `CCCCCCCC/C=C\CCCCCCCC(N)=O` [oleamide], the “hydrolysis by FAAH−/− brain extracts, times more slowly than homozygous wild type brain extracts” value [9] is reported as 50 to 100 times.
